Measurements taken from patent US11458187B2, “Extracellular histones as biomarkers for prognosis and molecular targets for therapy” (OKLAHOMA MEDICAL RESEARCH FOUNDATION, priority 2007, dated 2022).

Tests used:
[1] = test system: baboons challenged with a lethal dose of E. coli; details: infusion of APC (Taylor et al., 1987); cited from earlier work
[2] = test system: mice; test: Intravenous histone injection lethality in mice; type: in vivo, mouse; details: co-injection of 5 mg APC/kg with 75 mg/kg histones, n=5
Experimental: To test the toxic effect of histones in vivo, the inventors injected 75 mg/kg of histones intravenously into mice. […] The calculated histone H3 concentration in the circulation of mice injected with the lethal dose of histones is about 5 times higher than the histone H3 level detected in the baboon plasma 8 hr post challenge with E. coli. […] The ratio of APC to histone H3 used to rescue the mice in vivo is similar to the ratio of APC to histone H3 used in endothelial cytoprotection experiment in vitro.

[3] = severe sepsis; decreased from about 31%; cited from earlier work
[4] = test system: IL-8; test: IL-8 production from endothelium (ELISA); type: cell-based, human; details: FIG. 9
Experimental: (§1) FIG. 9—Histones induce IL-8 production from endothelium. EA.hy926 cells were stimulated with histone (0.1 mg/ml) or histone H3, histone H4 (50 μg/ml) for 24 hr at 37° C. in the absence or presence of APC (6 μg/ml), Anti-TLR2, Anti-TLR4 (10 μg/ml). Conditioned medium was measured for IL-8 production by […] ELISA kit.

[5] = target: T1, calf thymus histone H4 (Bos taurus, UniProt P62803); test: Cleavage of purified histone H4 by APC (SDS-PAGE); type: biochemical; details: 37° C.
T1 construct: Purified calf thymus histone H3 (top panel) or histone H4 (bottom panel); purchased Roche; host or cells: calf thymus tissue
Experimental: 0.1 mg/ml histone H4 was incubated with 20 μg/ml human APC in PBS containing 1 mM CaCl2 and MgCl2 at 37° C. for 60 min. Sample was subjected to SDS-PAGE and GelCode Blue (PIERCE) staining or sent to matrix-assisted laser desorption ionization-time of flight facility at the University of Oklahoma Health Science Center for molecular weight determination.

[6] = test system: IL-6; test: IL-6 production from endothelium (ELISA); type: cell-based, human; details: FIG. 8
Experimental: as §1, with “8—Histones” for “9—Histones”, “IL-6” for “IL-8”

[7] = test system: baboons challenged with a lethal dose of E. coli; test: Baboon model of sepsis, lethal dose of E. coli with or without infused APC; type: in vivo
Experimental: Six to 8 week male C57BL/6 mice (Jackson Lab) were used according to an animal protocol approved by Institutional Animal Care and Use Committees of the Oklahoma Medical Research Foundation. Baboon experiments were performed as previously described^5.
To test whether extracellular histones may be involved in the pathogenesis of diseases and if APC can cleave these histones in vivo, the inventors examined frozen archival plasma samples from a non-human primate model of sepsis in which baboons were challenged with a lethal dose of E. coli (Taylor et al., 1987). […] The inventors measured extracellular histones in the plasma from animals challenged with the lethal dose of E. coli either in the absence or presence of infused APC. Intact histone H3 was detected by Western blot in the plasma of the two baboons challenged with the lethal dose of E. coli and reached about 15 μg/ml 8 hours post-challenge (FIG. 14E). The inventors were unable to measure other histones in the same way because those anti-histone antibodies were not adequately sensitive. The increase in histone H3 accompanied the onset of acute renal failure as indicated by a high serum creatinine level, 2.65+/−0.05 mg/dL (normal range: 0.7-1.4 mg/dL) 8 hours post-challenge. […] APC co-infusion protected renal function as indicated by the normal serum creatinine level, 1.15+/−0.15 mg/dL at 8 hours post-challenge. […]

[8] = test system: calf thymus histone H3; test: Cleavage of purified histone H3 by APC (SDS-PAGE); type: biochemical; details: 100 μg/ml histone H3, indicated concentrations of human APC, 1 hr, 37° C.; FIG. 13C
Experimental: (FIG. 13C) Purified calf thymus histone H3 (top panel) or histone H4 (bottom panel) (100 μg/ml) was incubated in Opti-MEM medium with the indicated concentrations of human APC for 1 hr at 37° C. Samples were then subjected to SDS-PAGE and coomassie blue staining.

[9] = APC 6 μg/ml, Anti-TLR2, Anti-TLR4 10 μg/ml, 24 hr
[10] = stimulation of EA.hy926 24 hr, serum-free, histones 0.1 mg/ml, histone H3 or H4 50 μg/ml

Row | Substance | survival of baboons [1] | rescue from lethal dose of histones [2] | mortality [3] | inhibition of histone-induced IL-8 production [4, 9] | cleavage of purified histone H4 ([5]; 100 μg/ml histone H4, indicated concentrations of human APC, 1 hr, FIG. 13C) | cleavage of purified histone H4 ([5]; 0.1 mg/ml histone H4, 20 μg/ml human APC, 60 min, 4-7 KD fragments, FIG. 4B) | inhibition of histone-induced IL-6 production [6, 9] | serum creatinine level ([7]; 8 hours post-challenge, APC co-infusion, normal range 0.7-1.4 mg/dL, 2.65+/−0.05 without APC) [mg/dL] | cleavage of extracellular histone H3 in plasma (Western blot) ([7]; two animals challenged with a lethal dose of E. coli and administered APC, FIG. 14E) | cleavage of purified histone H3 [8] | IL-8 production [4, 10] | IL-6 production [6, 10]
1 | APC: Human recombinant APC (Xigris) purchased from Eli Lilly; drotrecogin alfa (activated protein C) | rescued these animals | rescued all of the mice | about 25% | completely inhibits histone effect on IL-6 and IL-8 production | cleaved histone H3 and H4 in a dose dependent fashion | also cleaved by APC | completely inhibits histone effect on IL-6 and IL-8 production | 1.15 ± 0.15 | can cleave extracellular histones in vivo | cleaved histone H3 and H4 in a dose dependent fashion |  | 
2 | Pam3CSK4 |  |  |  |  |  |  |  |  |  |  | have no effect | have no effect
